The test concerns the target SARS-CoV-2 PLpro (Severe acute respiratory syndrome coronavirus 2, UniProt P0DTD1). Put plainly: biochemical. Type of test: biochemical. Conditions: concentration not stated.

Here are results for 3 molecules from PMC9878345 (Frontiers in Chemistry, 2023).

Turning to `O=c1c2cc(O)c(O)cc2oc2cc(O)c([C@@H]3O[C@H](CO)[C@@H](O)[C@H](O)[C@H]3O)c(O)c12` [mangiferin, 2-β-D-glucopyranosyl-1,3,6,7-tetrahydroxy-9H-xanthan-9-one], the “inhibition activity in SARS-CoV-2 PLpro enzymatic activity” value (“inhibition activity” below) is listed as “more than 50%”.

For the molecule `C/C=C1/[C@H](O[C@@H]2O[C@H](CO)[C@@H](O)[C@H](O)[C@H]2O)OC=C(C(=O)OC)[C@H]1CC(=O)OCCc1ccc(O)c(O)c1` [oleuropein], the “inhibition activity” value is given as “more than 50%”.

Consider `C[C@@H]1O[C@@H](OC[C@H]2O[C@@H](Oc3c(-c4ccc(O)c(O)c4)oc4cc(O)cc(O)c4c3=O)[C@H](O)[C@@H](O)[C@@H]2O)[C@H](O)[C@H](O)[C@H]1O` [rutin], for which the “inhibition activity” value is “more than 50%”.
